Patent publication US20260250325A1, “Antiviral Polypeptide Membrane Fusion Inhibitor, and Preparation Method and Application Thereof” (priority 2025, published 2026)
Where a SMILES comes first, the peptide text is derived from it. [ ]: non-standard residue; d: D form. The star is where a group is joined. ξ: configuration not given here. Succinyl(4-O-cholesteryl) = CC(C)CCC[C@@H](C)[C@H]1CC[C@H]2[C@@H]3CC=C4C[C@@H](OC(=O)CCC(=O)*)CC[C@]4(C)[C@H]3CC[C@]12C; ξD = NC(CC(=O)O)C(=O)O

Columns and labels:
RSV A2 virus strain [1] = assay: Cotton rat RSV A2 challenge protection, lung nucleic acid load by RT-qPCR; assay type: in vivo; details: cotton rats; for Nucleic acid load RT-qPCR detection results Log10 mean (copy number/gram of lung tissue): tracheal nebulization 1 mg/kg QD for 5 days, lung collected 2 h after final administration on Day 4; for effect on viral titer in lung tissue (in words): tracheal nebulization once daily for 5 days
Excerpt: Female cotton rats were from Shanghai Yishang Biotechnology Co., Ltd. The RSV A2 virus strain was from the ATCC, with a catalog number VR-1540. RT-qPCR primer+probe primer were supplied by Qingke Biotechnology Co., Ltd, with batch number TSP20241227-025-00187. The RT-qPCR standard was provided by Vazyme, with batch number 20241008.
Female cotton rats (6-8 weeks old) were grouped based on body weight (n=5). All animals were intranasally challenged with RSV on Day 0 at a challenge dosage of […] pfu (50 μL) per animal. Administration began 1 h after Day 0 challenge; the polypeptide sample, positive control, and solvent control were administered via tracheal nebulization once daily for 5 consecutive days. Lung tissue was collected from all animals 2 h after the final administration on Day 4. Left lung tissue (including partial trachea) was rapidly frozen in a virus protection solution with a 10-fold volume and stored below −70° C.; and the viral titer was detected with RT-qPCR.
First, sample homogenization and lung tissue RNA extraction were performed, and the supernatant was taken from the tissue sample that was homogenized using a tissue homogenizer (maintaining a low-temperature environment). The approximately 100 μL of the homogenate supernatant was taken, and total tissue RNA was extracted by using a VeZol reagent-chloroform-water phase-magnetic bead method, and dissolved in RNase-free water. The RT-qPCR reaction system was prepared as follows: a one-step RT-qPCR reaction system was prepared by using an RNA template, a probe, a primer pair, an RT-qPCR buffer, and the RNase-free water; each sample was tested in duplicated wells, with each well containing 20 μL of the one-step RT-qPCR reaction system; a quantitative standard curve well (RSV A2 N gene full-length plasmid), a positive quality control well, and a negative quality control well were arranged at the same time. Then, amplification programs were set according to reverse transcription, pre-denaturation, and cyclic amplification, and amplification data was collected by using a real-time fluorescence quantification PCR instrument, and a mean CT value for duplicated wells was calculated. The CT value from the test results for each sample was substituted into a quantitative standard curve to calculate a copy number. A calculation formula for RSV viral load (copy number/gram of lung tissue) was: sample viral load (copy number/gram of lung tissue)=copy number/relative tissue input (g).
(§1) One hour after RSV A2 challenge in cotton rats, compounds 13, 14, 17, 19, 20, 21, 26, 27, 28, and 40 were administered via tracheal nebulization once daily for 5 consecutive days; and 2 h after the final administration, lung tissue was collected from all groups for viral titer detection, and results were shown in Table 4.

[2] = Cytotoxicity test in HEp-2 cells (CCK8 cell viability); assay type: cell-based; details: human; HEp-2 cells, CCK8, 1 day; read-out: CC50
Summary of the method: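 HEp-2 cells seeded at 30,000/well, cultured overnight at 37° C./5% CO2, then exposed to diluted compound for 1 day in 0.5% DMSO. Viability read by CCK8, normalised to untreated-cell and medium-only controls; CC50 from four-parameter variable-slope fit.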

RSV A2 virus strain [3] = assay: Mouse RSV A2 challenge protection, lung viral titer by plaque method; assay type: in vivo, BALB/c mice; details: for Mean (PFU/g lung): BALB/c mice, tracheal nebulization 1 mg/kg QD for 5 days, lung collected 2 h after final administration on Day 4; for effect on viral titer in lung tissue (in words): mice, tracheal nebulization once daily for 5 days
Protocol: Female BALB/c mice were from Shanghai Yishang Biotechnology Co., Ltd. HEp- 2 were from the ATCC, with a catalog number CCL-23. The cells were cultured in a DMEM medium solution in which 10% (v/v) fetal bovine serum and 1% penicillin and streptomycin were added. The RSV A2 virus strain was from the ATCC, with a catalog number VR-1540.
Eight-week-old female BALB/c mice were grouped based on body weight (n=6). All animals were intranasally challenged with RSV on Day 0 at a challenge dosage of 1×10^6 pfu (20 μL) per animal. Administration began 1 h after Day 0 challenge; the polypeptide sample, positive control, and solvent control were administered via tracheal nebulization once daily for 5 consecutive days (see Table 3 below for administration dosage and administration frequency). Lung tissue was collected from all animals 2 h after the final administration on Day 4; left lung tissue was rapidly frozen in a virus protection solution with a 10-fold volume and stored below −70° C.; and a viral titer was detected by using a plaque method.
For analysis, the lung RSV A2 virus was determined by performing a tissue homogenate viral load plaque method. In short, on the day prior to sample detection, the HEp-2 cells were inoculated into a 12-well plate (spreading density being 0.3×10^6 cells/mL, with 1000 μL of cell suspension per well) according to a standard HEp-2 cell culture operation procedure. On the day of incubation, the supernatant was taken from the tissue sample that was homogenized using a tissue homogenizer (maintaining a low-temperature environment), and the supernatant was taken after centrifugation. The tissue homogenate sample was diluted with serum-free DMEM, and inoculated into a 12-well plate at a final volume of 400 μL. After 2 h of incubation, the homogenate supernatant was discarded, and 1.5 mL of a covering layer (cell culture medium containing 1% soft agar) was added to each well and cultured in the incubator for approximately 72 h. The covering layer was discarded, the cells were fixed, blocking was performed by using a blocking solution, dyeing was performed with HRP-RSVG, development and air drying were terminated with pure water. Colored spots on the well plate were counted by using a fluorescent (enzyme-linked) immunoassay spot analyzer, and the viral titer was expressed as a plaque-forming unit per gram of tissue (PFU/g). The viral titer was calculated as an arithmetic mean±standard error of all animals in a group.
as §1, with “mice,” for “cotton rats,”, “plaque” for “titer”, “3.” for “4.”

Row | Compound | Nucleic acid load RT-qPCR detection results Log10 mean (copy number/gram of lung tissue) (RSV A2 virus strain [1]) | effect on viral titer in lung tissue (in words) (RSV A2 virus strain [1]) | CC50 at 1 day [2] [µM] | Mean (PFU/g lung) (RSV A2 virus strain [3]) | effect on viral titer in lung tissue (in words) (RSV A2 virus strain [3])
1 | CC[C@H](C)[C@H](NC(=O)[C@H](CCCCN)NC(=O)[C@H](CCCCN)NC(=O)[C@H](CC(C)C)NC(=O)[C@H](CO)NC(=O)[C@H](CCC(=O)O)NC(=O)[C@H](CCC(=O)O)NC(=O)[C@@H](NC(=O)[C@H](CCCCN)NC(=O)[C@H](CCCCN)NC(=O)[C@H](CC(N)=O)NC(=O)[C@@H](NC(=O)[C@H](CCC(=O)O)NC(=O)[C@H](CCC(=O)O)NC(=O)[C@@H](NC(=O)[C@H](CCCCN)NC(=O)[C@H](CCCCN)NC(=O)[C@H](CC(=O)O)NC(=O)[C@H](Cc1ccccc1)NC(=O)[C@H](CCC(=O)O)NC(=O)C(CC(=O)O)NC(C)=O)[C@@H](C)CC)C(C)C)[C@@H](C)CC)C(=O)N[C@@H](CCC(=O)O)C(=O)N[C@@H](CCC(=O)O)C(=O)N[C@@H](CO)C(=O)N[C@@H](CC(=O)O)C(=O)N[C@@H](CCCCN)C(=O)N[C@@H](CCCCN)C(=O)N[C@@H](CC(C)C)C(=O)N[C@@H](CCC(=O)O)C(=O)N[C@@H](CCC(=O)O)C(=O)N[C@H](C(=O)N[C@@H](CC(N)=O)C(=O)N[C@@H](CCC(=O)O)C(=O)N[C@@H](C)C(=O)N[C@@H](C)C(=O)N[C@@H](C)C(=O)N[C@@H](CCCCN)C(=O)N[C@@H](CCCCNC(=O)CCC(=O)O[C@H]1CC[C@@]2(C)C(=CC[C@H]3[C@@H]4CC[C@H]([C@H](C)CCCC(C)C)[C@@]4(C)CC[C@@H]32)C1)C(N)=O)C(C)C (stereo partly shown) [Compound 14] (Ac-[ξD]EFDKKIEEVNKKIEESLKKIEESDKKLEEVNEAAAKK(Succinyl(4-O-cholesteryl))-NH2) | 7.68 Log10 copy number/gram of lung | significantly reduce the viral titer in lung tissue | 9.6 | 4820 | significantly reduce the viral titer in lung tissue
2 | CC[C@H](C)[C@H](NC(=O)[C@H](CCCCN)NC(=O)[C@H](CCCCN)NC(=O)[C@H](CC(C)C)NC(=O)[C@H](CO)NC(=O)[C@H](CCC(=O)O)NC(=O)[C@H](CCC(=O)O)NC(=O)[C@@H](NC(=O)[C@H](CCCCN)NC(=O)[C@H](CCCCN)NC(=O)[C@H](CC(N)=O)NC(=O)[C@@H](NC(=O)[C@H](CCC(=O)O)NC(=O)[C@H](CCC(=O)O)NC(=O)[C@@H](NC(=O)[C@H](CCCCN)NC(=O)[C@H](CCCCN)NC(=O)[C@H](CC(=O)O)NC(=O)[C@H](Cc1ccccc1)NC(=O)[C@H](CCC(=O)O)NC(=O)C(CC(=O)O)NC(C)=O)[C@@H](C)CC)C(C)C)[C@@H](C)CC)C(=O)N[C@@H](CCC(=O)O)C(=O)N[C@@H](CCC(=O)O)C(=O)N[C@@H](CO)C(=O)N[C@@H](CC(=O)O)C(=O)N[C@@H](CCCCN)C(=O)N[C@@H](CCCCN)C(=O)N[C@@H](CC(C)C)C(=O)N[C@@H](CCC(=O)O)C(=O)N[C@@H](C)C(=O)N[C@@H](C)C(=O)N[C@@H](C)C(=O)N[C@@H](CCCCN)C(=O)N[C@@H](CCCCNC(=O)CCC(=O)O[C@H]1CC[C@@]2(C)C(=CC[C@H]3[C@@H]4CC[C@H]([C@H](C)CCCC(C)C)[C@@]4(C)CC[C@@H]32)C1)C(N)=O (stereo partly shown) [Compound 17] (Ac-[ξD]EFDKKIEEVNKKIEESLKKIEESDKKLEAAAKK(Succinyl(4-O-cholesteryl))-NH2) | 8.42 Log10 copy number/gram of lung | significantly reduce the viral titer in lung tissue | 26.4 | 7885 | significantly reduce the viral titer in lung tissue
